# Values of other authors as cited in patent US20160367500A1 (FERTILIFY INC., priority 2013, published 2016).
# Like-named read-outs stand apart in the source and are kept apart here.
# Assays:
# [1] = system: aged female mice
# [2] = fortification of food with folic acid
# [3] = system: mouse hepatocyte mitochondria
# [4] = system: methylglyoxal-treated oocytes
# [5] = system: female rats
# [6] = not given; remark: listed apart in the source
# [7] = system: anti-Müllerian hormone (AMH); conditions: women with sufficient levels of vitamin D
# [8] = system: ROS-mediated embryo-toxicity in cultures; conditions: vitamin C and vitamin E together, ex-vivo murine models
# [9] = diet deficient in vitamin D versus vitamin D sufficient diet (Halloran 1980)
molecule,measurement,setting,value
"COC1=C(OC)C(=O)C(C/C=C(\C)CC/C=C(\C)CC/C=C(\C)CC/C=C(\C)CC/C=C(\C)CC/C=C(\C)CC/C=C(\C)CC/C=C(\C)CC/C=C(\C)CCC=C(C)C)=C(C)C1=O [Coenzyme Q10, coenzyme Q10]",litter size,"[1]; 52-week-old mice, versus control groups without coenzyme Q10",significantly larger litter sizes
same,number of ovulated eggs after stimulation,[1]; aged female mice,significantly increases the number of ovulated eggs
same,safely tolerable dose,in vivo,up to 1200 mg per day
"Nc1nc2ncc(CNc3ccc(C(=O)N[C@@H](CCC(=O)O)C(=O)O)cc3)nc2c(=O)[nH]1 [Folic Acid, folic acid]",rate of neural-tube defects,[2],significant reduction in the rate of neural-tube defects
"O=C(O)c1cc(C(=O)O)c2c(n1)C(=O)C(=O)c1cc(C(=O)O)[nH]c1-2 [PQQ, pyrroloquinoline quinone]",mitochondrial biogenesis,[3]; aging cells,promotes the spontaneous generation of new mitochondria within aging cells
same,protection from oxidative stress,[3]; mouse hepatocyte mitochondria,protects mouse hepatocyte mitochondria from oxidative stress
same,upper limit (in words),adults over the age of 18,(no known upper limit)
"Oc1ccc(C=Cc2cc(O)cc(O)c2)cc1 [Resveratrol, resveratrol]","adverse effects caused by methylglyoxal (inhibition of oocyte maturation, disruption of spindle assembly)",[4],can alleviate the adverse effects caused by methylglyoxal
same,"excessive ROS production, aberrant mitochondrial distribution, high level lipid peroxidation",[4]; methylglyoxal-induced cytotoxic changes,can block these cytotoxic changes
same,DNA double strands breaks,[4]; methylglyoxal-treated oocytes,decreased
vitamin D,reduction of fertility,[5]; [9],75%
same,reduction of litter size,[5]; [9],30%
same,litter size,[5]; diet lacking vitamin D before mating versus diet containing vitamin D (Hickie 1983),significantly smaller litters
same,pregnancy rate per IVF cycle,[6]; women whose vitamin D levels were insufficient or deficient,34.7%
same,pregnancy rate per IVF cycle,[6]; women with sufficient levels of vitamin D,52.5%
same,AMH levels,[7],increased levels of anti-Müllerian hormone (AMH)
vitamin E,IVF,[8],improved IVF
same,rate of embryo development,[8],increased the rate of embryo development
same,tolerable upper limit of intake,Health Canada Nutrition Tables (2013),1000 mg per day
